Laboratory results: paper PMC5267425, “Identification of small molecule modulators of HIV-1 Tat and Rev protein accumulation” (Retrovirology, 2017)

Key:
Format in all cases: cell-based
[1] = system: HIV-1 US RNA; assay: FISH of HIV-1 US RNA and GagGFP in HeLa rtTA HIV GagGFP C7 cells; settings: 791 30 µM, 833 2 µM, 892 15 µM
Protocol: Changes in HIV-1 US RNA subcellular distribution in response to compound treatment was analyzed by fluorescent in situ hybridization in HeLa HIVrtTA GagGFP cells, as described by Wong et al.. Following washing to remove unbound probe, nuclei were stained with DAPI and images were acquired using a Leica DMR microscope at 630× magnification.

[2] = system: HIV-1 Tat; assay: Tat protein decay in the presence of cycloheximide; settings: cycloheximide 10 µg/ml (Figure S4)
Protocol: To assess effect of compounds on HIV-1 Tat stability, the decay of HIV-1 Tat levels was compared between DMSO-treated and compound-treated protein lysates in the presence of cycloheximide. In the first set of experiments, HIV-1 gene expression was induced with doxycylin (dox) for 24 h then 10 μg/mL cycloheximide was added to block new protein synthesis in combination with either DMSO or the compounds. Cells were harvested every 2 h and Tat protein levels measured by western blot. Quantification of the relative intensity of the detected bands was performed using ImageLab software (BioRad) and normalized to corresponding bands of the loading control (GAPDH) from at least three independent experiments. To determine whether the compounds’ effect on HIV-1 gene expression could be reversed by inhibition of the proteasome, compound treatment assay was performed as previously described with the addition of 10 μM MG132 (Sigma-Aldrich) to compound-treated cells 8 h prior to harvesting. Equal amounts of protein were run on 13 or 14% gels by SDS-PAGE, blotted and probed with antibodies for Tat and GAPDH. Quantification of the relative intensity of the detected bands was performed using ImageLab software (BioRad) and normalized to corresponding bands of the loading control (GAPDH) from at least three independent experiments.

[3] = system: HIV-1 MS RNA isoforms; assay: RT-PCR of splice site usage within HIV-1 MS RNA; settings: for decrease in levels of Rev1/2 and Nef RNAs relative to DMSO / increase of Tat1 and Tat2 RNAs relative to DMSO: 833 2 µM, 892 15 µM
Protocol: The effect of compound treatment on splice site selection within the HIV-1 MS RNA class was analyzed by radioactive RT-PCR as described previously. Radioactive reaction products were resolved on 6% denaturing polyacrylamide gels (8 M Urea, 1xTBE) and detection using a Typhoon 9400 PhosphorImager (Amersham). Gel densitometry was performed using ImageJ software (NIH) to calculate mRNA levels of HIV-1 MS mRNA isoforms, measured as the density of an individual isoform divided by the total density of all visible viral RNA species in a sample.

[4] = Viable cell count by FSC/SSC gate, CEM-GXR; settings: human, CEM-GXR cells infected with a Clade B HIV-1 strain
Protocol: To assess the activity of compounds against HIV-1 strains having resistance to various ART drugs, assays were performed in the context of CEM-GXR cells. These cells express CD4, CXCR4, and coreceptor, CCR5 as well as an exogenous Tat-driven LTR-GFP expression cassette. Cultures were infected with different HIV-1 strains of interest, differing on their subtypes (A and B), and resistance to three major drug targets (reverse transcriptase, protease, and integrase). The culture contains serial dilutions of the molecule in the final concentrations from 0.156 to 5 μM for 833; 725 nM to 46.87 μM for 791; 1.95 to 62.5 μM for 892. Antiviral activity was evaluated in the assay by measuring inhibition of HIV-1 spread in a coculture of CEM-GXR cells containing 1% of HIV-1 infected (GFP positive) cells using flow cytometric analysis (GuavaSoft 2.2 software, Guava HT8, Millipore). To estimate the viable cell counts, the gate in a flow cytometer (Guava HT8) was set to cover 95% of the freshly passaged uninfected CEM-GXR cell or using ViaCount™. The same parameter was employed to gate viable cells in the inhibition assay and the number of gated cells was obtained by GuavaSoft 2.2 software. For assays using ViaCount™, sample acquisition and data analysis were performed with the selection of EasyFit analysis feature using the ViaCount™ software module.

Cc1cc(NCc2cccnc2)n2ncc(-c3ccc(Cl)cc3)c2n1 [Compound 791, 3-(4-chlorophenyl)-5-methyl-N-(3-pyridinylmethyl)pyrazolo[1,5-a]pyrimidin-7-amine]
GagGFP levels relative to DMSO [1]: reduced | cytoplasmic accumulation of HIV-1 US RNA [1]: prevented cytoplasmic accumulation | half-life of HIV-1 Tat relative to DMSO [2]: do not alter | splice site usage within MS RNA relative to control ([3]; 30 µM, 24 h): No significant changes | CC50 [4]: > 12 µM

O=C(NC(=S)NNC(=O)c1ccccc1O)c1ccc(-c2ccccc2)cc1 [Compound 833, N-([2-(2-hydroxybenzoyl)hydrazino]carbonothioyl}-4-biphenylcarboxamide]
GagGFP levels relative to DMSO [1]: reduced | cytoplasmic accumulation of HIV-1 US RNA [1]: prevented cytoplasmic accumulation | half-life of HIV-1 Tat relative to DMSO [2]: do not alter | decrease in levels of Rev1/2 and Nef RNAs relative to DMSO [3]: ~ 30% | increase of Tat1 and Tat2 RNAs relative to DMSO [3]: < 10% | CC50 [4]: > 5 µM

COc1ccc(C=NNC(=O)c2ccccc2O)cc1O [Compound 892, 2-hydroxy-N′-(3-hydroxy-4-methoxybenzylidene)benzohydrazide]
GagGFP levels relative to DMSO [1]: reduced | cytoplasmic accumulation of HIV-1 US RNA [1]: prevented cytoplasmic accumulation | half-life of HIV-1 Tat relative to DMSO [2]: do not alter | decrease in levels of Rev1/2 and Nef RNAs relative to DMSO [3]: ~ 30% | increase of Tat1 and Tat2 RNAs relative to DMSO [3]: < 10% | CC50 [4]: 31 µM
